Several values for one entry are separate records, joined by “and”; a condition that tells them apart may be missing. Identical values can stand only once.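 The compound was tested at five concentrations on cells cultured in 96-well plates, with a 48-hour exposure period. Abbreviation: GI50, concentration required for 50% inhibition of growth. TGI: concentration producing complete growth inhibition.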
What was measured:
Assay in all cases: NCI-60 cell line screen, 48 h
HOP-92 NSCLC = tested on: HOP-92 NSCLC
OVCAR-3 ovarian = tested on: OVCAR-3 ovarian
BT-549 breast = tested on: BT-549 breast
ACHN renal = tested on: ACHN renal
CAKI-1 renal = tested on: CAKI-1 renal
K-562 leukemia = tested on: K-562 leukemia
786-0 renal = tested on: 786-0 renal
SNB-75 CNS = tested on: SNB-75 CNS
HCC-2998 colon = tested on: HCC-2998 colon
SK-MEL-28 melanoma = tested on: SK-MEL-28 melanoma
HCT-116 colon = tested on: HCT-116 colon
LOX IMVI melanoma = tested on: LOX IMVI melanoma
NCI-H460 lung = tested on: NCI-H460 lung
SF-295 CNS = tested on: SF-295 CNS
M14 melanoma = tested on: M14 melanoma
OVCAR-8 ovarian = tested on: OVCAR-8 ovarian
UO-31 renal = tested on: UO-31 renal

Structure (SMILES) | TGI (HOP-92 NSCLC) | TGI (OVCAR-3 ovarian) | TGI (BT-549 breast) | TGI (ACHN renal) | TGI (CAKI-1 renal) | TGI (K-562 leukemia) | TGI (786-0 renal) | TGI (SNB-75 CNS) [µM] | TGI (HCC-2998 colon) | TGI (SK-MEL-28 melanoma) | TGI (HCT-116 colon) | TGI (LOX IMVI melanoma) | TGI (NCI-H460 lung) | TGI (SF-295 CNS) | TGI (M14 melanoma) | TGI (OVCAR-8 ovarian) | TGI (UO-31 renal) | GI50 (OVCAR-3 ovarian) | GI50 (K-562 leukemia) | GI50 (HCC-2998 colon)
COC(=O)CCC(C)C1CCC2C3CCC4CC5CCC4(C)C3(O5)C(Br)C(Br)C12C (stereo not given) | > 100 µM | > 100 µM | > 100 µM | > 100 µM | > 100 µM | > 100 µM | > 100 µM | > 100 | > 100 µM | > 100 µM | > 100 µM | > 100 µM | > 100 µM | > 100 µM | > 100 µM | > 100 µM | > 100 µM | – | – | –
COC(=O)c1c(O)ccc2c1c1c(n2-c2ccc(OC)cc2)C(=O)c2ccccc2C1=O | 36.7 µM | 65.2 µM | 84.9 µM | 25.6 µM | 66 µM | > 100 µM | 29.1 µM | 51.5 | 11.3 µM | > 100 µM | 30.6 µM | > 100 µM | 61.7 µM | 44.1 µM | > 100 µM | 33.7 µM | 31.1 µM | – | – | –
Cc1cc(-c2nc3cc(O)ccc3s2)ccc1N | > 100 µM | 67.3 µM | > 100 µM | 74.7 µM | > 100 µM | > 100 µM | > 100 µM | 95.5 | > 100 µM | 75.5 µM | 42.7 µM | > 100 µM | > 100 µM | 73.4 µM | 52.4 µM | > 100 µM | 78.8 µM | – | – | –
COc1cc(-c2oc(C=Nc3ccccc3)c([N+](=O)[O-])c2-c2ccc(O)c(OC)c2)ccc1O | > 51.9 µM | > 100 µM | > 100 µM | 32 µM | 47.2 µM | > 100 µM | > 58.3 µM | 64.4 | 30.5 µM | 68.7 µM | > 68.5 µM | > 100 µM | 35.5 µM | > 95.7 µM | > 100 µM | > 54.9 µM | 29.6 µM | – | – | –
CN(C)c1ccc(N=Nc2cccc3ncccc23)cc1 | > 100 µM | > 100 µM | > 100 µM | > 100 µM | > 100 µM | > 100 µM | > 100 µM | > 100 | > 100 µM | > 100 µM | > 100 µM | > 100 µM | > 100 µM | > 100 µM | > 100 µM | > 100 µM | > 100 µM | – | – | –
[O-]c1c[n+](CC[n+]2cc([O-])on2)no1 | > 100 µM | > 100 µM | > 100 µM | > 100 µM | > 100 µM | > 100 µM | > 100 µM | > 100 | > 100 µM | > 100 µM | > 100 µM | > 100 µM | > 100 µM | > 100 µM | > 100 µM | > 100 µM | > 100 µM | – | – | –
CC(C)c1ccc2[nH]c(O)c(C3=Nc4ccccc4C3=O)c2c1 | 23.4 µM | 53.8 µM | 69.6 µM | 18.6 µM | > 100 µM | > 100 µM | 12.3 µM | 9.36 | > 100 µM | > 100 µM | 68 µM | > 100 µM | > 100 µM | > 100 µM | > 100 µM | > 100 µM | > 100 µM | – | – | –
COC(=O)/C(=C\c1cn(C(C)=O)c2ccccc12)P(=O)(OC)OC | 33.8 µM | 32.4 µM | 29.6 µM | 25.4 µM | 27 µM | > 100 µM | 46.3 µM | 26.4 | 30.4 µM | 55.1 µM | 28 µM | 20.3 µM | 31.1 µM | 28.5 µM | 28.5 µM | 68.9 µM | 26.1 µM | – | – | –
Cc1c(F)c(N)c2c(=O)cc(-c3ccc(NC(=O)[C@@H](N)CCCCN)c(F)c3)oc2c1F | 68.5 µM and 39.8 µM | 20.7 µM and 14.8 µM | 50.3 µM and 49.6 µM | 31.1 µM and 25.6 µM | 9.01 µM and 29.7 µM | 36.4 µM and 10.4 µM | 24 µM and 26.4 µM | 13.6 | 18.7 µM and 19.7 µM | 35.1 µM and 29 µM | 21.5 µM and 22.1 µM | 41.3 µM and 27.7 µM | 16.2 µM and 16.6 µM | 28.5 µM and 32.3 µM | 46 µM and 39.4 µM | 33 µM and 24.6 µM | 33.7 µM and 22.1 µM | 0.508 µM and 0.249 µM | 0.652 µM and 0.278 µM | 0.253 µM and 0.769 µM
CC(C)CCCC(C)[C@H]1CC[C@H]2[C@@H]3CC[C@H]4C[C@@H](CCC=C(c5cc(Cl)c(O)c(C(=O)O)c5)c5cc(Cl)c(O)c(C(=O)O)c5)CC[C@]4(C)[C@H]3CC[C@]12C (stereo not given in full) (tested in a mixture with another compound) | > 50 µM | > 50 µM | > 50 µM | > 50 µM | > 50 µM | > 50 µM | > 50 µM | > 50 | > 50 µM | > 50 µM | > 50 µM | > 50 µM | > 50 µM | > 50 µM | > 50 µM | > 50 µM | 27.2 µM | – | – | –
COc1ccc2c(c1)CCCN1Cc3ccccc3CC21 (stereo not given) | > 100 µM | > 100 µM | > 100 µM | > 100 µM | > 100 µM | > 100 µM | > 100 µM | > 100 | > 100 µM | > 100 µM | > 100 µM | > 100 µM | > 100 µM | > 100 µM | > 100 µM | > 100 µM | > 100 µM | – | – | –
NS(=O)(=O)c1nnc(/N=C(/CCC(=O)O)C(=O)O)s1 | > 100 µM | > 100 µM | > 100 µM | > 100 µM | > 100 µM | > 100 µM | > 100 µM | > 100 | > 100 µM | > 100 µM | > 100 µM | > 100 µM | > 100 µM | > 100 µM | > 100 µM | > 100 µM | > 100 µM | – | – | –
C1=NCCNCCN=Cc2ccccc2OCc2cccc(n2)COc2ccccc21 | > 100 µM | > 65.3 µM | 44.4 µM | > 100 µM | > 95.6 µM | > 79.5 µM | > 39.1 µM | > 31.2 | > 55.5 µM | > 100 µM | > 100 µM | 34 µM | > 100 µM | > 51.4 µM | > 46.6 µM | 37.5 µM | > 30.7 µM | – | – | –
O=C(OC(/C=C/c1ccccc1)P1(=O)N(Cc2ccccc2)[C@@H]2CCCC[C@H]2N1Cc1ccccc1)c1ccccc1 (stereo not given in full) | 8.08 µM | > 100 µM | > 55.8 µM | > 100 µM | > 100 µM | > 100 µM | > 100 µM | > 28.1 | > 100 µM | > 100 µM | > 100 µM | > 74.9 µM | > 27.3 µM | > 100 µM | > 100 µM | > 29.8 µM | 68.6 µM | – | – | –
CC(C)(C)[Si](C)(C)OCC#C[C@@]1(O)CCCCC1CC(Sc1ccccc1)Sc1ccccc1 (stereo not given in full) | 37.4 µM | 26.4 µM | 36.3 µM | 27.4 µM | 23.2 µM | > 100 µM | 26.4 µM | 28.7 | 30.7 µM | 31.3 µM | 24 µM | 34.5 µM | 34.6 µM | 28.2 µM | 35.5 µM | 35.1 µM | 26.9 µM | – | – | –
CCCCCCCCCC1CC(=O)NCC(=O)NC(C(C)C)C(=O)NC(CC(C)C)C(=O)NC(C)C(=O)NC(C(C)C)C(=O)O1 (stereo not given) | 41.9 µM | 28.8 µM | > 100 µM | > 100 µM | > 100 µM | > 53.3 µM | 35 µM | 18.2 | > 96.2 µM | 36.6 µM | > 66.3 µM | 30.8 µM | 23.6 µM | 37 µM | > 100 µM | 18.2 µM | > 100 µM | – | – | –
COc1cccc(C[C@H]2COC(=O)[C@]2(O)Cc2cccc(OC)c2)c1 | > 100 µM | > 100 µM | > 100 µM | > 100 µM | > 100 µM | > 100 µM | > 100 µM | > 100 | > 100 µM | > 100 µM | > 100 µM | > 100 µM | > 100 µM | > 100 µM | > 100 µM | > 100 µM | > 100 µM | – | – | –
C/C1=C\CC/C(C)=C/C=C(/C(C)C)CC/C(C(=O)O)=C/CC1 | > 100 µM | 59.5 µM | > 100 µM | > 100 µM | > 100 µM | > 100 µM | > 100 µM | > 100 | > 100 µM | > 100 µM | > 100 µM | > 100 µM | > 100 µM | 78.3 µM | > 100 µM | > 100 µM | > 100 µM | – | – | –
Cc1ccc(/C(O)=C/c2nc3ccccc3[nH]c2=O)c(C)c1 | 16.9 µM | > 73.7 µM | > 57.5 µM | 30 µM | 18.3 µM | > 100 µM | 14.7 µM | 20.3 | > 100 µM | 54.6 µM | 55.8 µM | > 100 µM | 46.8 µM | 53 µM | > 96 µM | 25.4 µM | 30.6 µM | – | – | –
CN(C)/C=C/c1nnnn1-c1ccc(I)cc1 | 34.7 µM | 54.5 µM | 92 µM | 63.1 µM | 50.6 µM | 44.5 µM | > 100 µM | 32.2 | > 100 µM | 65.7 µM | 23.5 µM | 41.1 µM | > 100 µM | > 100 µM | 40.6 µM | 72.2 µM | 39.1 µM | – | – | –
CC(=O)N1C2=CCCC2(C)c2ccccc21 (stereo not given) | > 100 µM | > 100 µM | > 100 µM | > 100 µM | > 100 µM | > 100 µM | > 100 µM | > 100 | 99.7 µM | > 100 µM | > 100 µM | > 100 µM | > 100 µM | > 100 µM | > 100 µM | > 100 µM | > 100 µM | – | – | –

— PubChem BioAssay (NCI)
